Measurements taken from patent publication US5563052A, “Process for producing L-tryptophan” (Kyowa Hakko Kogyo Co., LTD, priority 1988, dated 1996).
Where two headings read alike, the source gives them in different places.

How the values were obtained:
Format in all cases: biochemical, Corynebacterium glutamicum
[1] = system: 3-deoxy-D-arabino-hepturosonate-7-phosphate synthase (DS); assay: Inhibition of DS activity by phenylalanine and tyrosine; conditions: DS in the ATCC 13032 transformant carrying pCGDS1
Experimental: DS activities of Corynebacterium glutamicum ATCC 13032 and the transformant carrying pCGDS1 were determined according to the method of P. R. Sprinavasan, D. B. Sprinson, et al. [J. Biol. Chem., 234, 716 (1959)].

[2] = system: anthranilate synthase (AS); assay: Feedback inhibition of anthranilate synthase (AS) activity by tryptophan; conditions: for IC50: read-out: Tryptophan concentration for 50% inhibiting the AS activity
Experimental: (§1) AS activities of Corynebacterium glutamicum ATCC 13032 and TA108 strains carrying pCtrp1 or pCtrp57 were determined according to the method of H. Hagino, et al. [Agric. Biol. Chem., 39, 323 (1975)], and their PRT activities were determined according to the method of J. Ito and C. Yanofsky [J. Biol. Chem., 97, 734 (1969)]. AS and PRT activities of TA108 strains carrying pCtrp1 or pCtrp57 were more than 10 times as high as those of ATCC 13032 strain. Tryptophan concentrations for 50% inhibiting the AS activities of […] strain, TA108 strain carrying pCtrp1 and TA108 strain carrying pCtrp57 were 0.002 mM, 0.008 mM and 4.0 mM, respectively, while tryptophan concentrations for 50% inhibiting the PRT activities of these three strains were 0.19 mM, 0.19 mM and 4.8 mM, respectively.

[3] = system: anthranilate phosphoribosyl transferase (PRT); assay: Feedback inhibition of anthranilate phosphoribosyl transferase (PRT) activity by tryptophan; conditions: for IC50: read-out: Tryptophan concentration for 50% inhibiting the PRT activity
Experimental: as §1

Compound: N[C@@H](Cc1ccccc1)C(=O)O [phenylalanine]
- Inhibition of DS [1]: free from inhibition

Compound: N[C@@H](Cc1c[nH]c2ccccc12)C(=O)O [tryptophan]
- Factor by which AS is less sensitive to tryptophan ([2]; AS encoded by pCtrp57 compared with AS encoded by pCtrp1): about 500
- IC50 ([2]; AS of TA108 strain carrying pCtrp1): 0.008 mM
- IC50 ([2]; AS of TA108 strain carrying pCtrp57): 4 mM
- Factor by which PRT is less sensitive to tryptophan ([3]; PRT encoded by pCtrp57 compared with PRT encoded by pCtrp1): about 25
- IC50 ([3]; PRT of TA108 strain carrying pCtrp1): 0.19 mM
- IC50 ([3]; PRT of TA108 strain carrying pCtrp57): 4.8 mM

Compound: N[C@@H](Cc1ccc(O)cc1)C(=O)O [tyrosine]
- Inhibition of DS [1]: free from inhibition
